Experimental data from patent US20240325495A1, “FUSION PROTEINS FOR THE TREATMENT OF DISEASE” (Bristol-Myers Squibb Company, priority 2020, published 2024).
Where two headings read alike, the source gives them in different places.

Columns and labels:
[1] = target: T1, IL-2Rβγ (as a pre-assembled heterodimer) (Mus musculus, UniProt P16297+P34902); assay: Binding affinity to mouse IL-2Rβγ
T1 sequence (P16297 27-240 limits assumed): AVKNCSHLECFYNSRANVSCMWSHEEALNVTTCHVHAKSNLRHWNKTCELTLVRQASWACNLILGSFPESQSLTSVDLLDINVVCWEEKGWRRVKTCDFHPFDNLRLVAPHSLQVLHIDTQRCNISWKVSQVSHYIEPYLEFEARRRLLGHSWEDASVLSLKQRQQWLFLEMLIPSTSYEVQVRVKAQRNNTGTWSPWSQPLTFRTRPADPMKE
T1 sequence (P34902 23-263 limits assumed): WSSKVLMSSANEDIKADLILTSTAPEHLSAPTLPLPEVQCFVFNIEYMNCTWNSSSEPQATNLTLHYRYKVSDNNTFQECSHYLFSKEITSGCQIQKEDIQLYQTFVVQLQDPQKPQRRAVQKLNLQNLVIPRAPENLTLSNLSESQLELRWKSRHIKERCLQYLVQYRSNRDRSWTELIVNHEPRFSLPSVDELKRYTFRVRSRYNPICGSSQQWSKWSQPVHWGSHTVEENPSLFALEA

[2] = system: Kit225 Interferon Regulatory Factor 1 (IRF1)-driven reporter cell line; assay: Kit225 IRF1-driven reporter cell line assay; assay type: cell-based
[3] = system: pSTAT5 in Tregs, Tconv, CD8 cells and NK cells; assay: Whole blood pSTAT5 assay, selectivity across cell types; assay type: cell-based
[4] = Nonclinical pharmacokinetics in mice; assay type: in vivo
Protocol: Various in vitro and in vivo studies were conducted to characterize the PK of BMS-986326 in the nonclinical setting.

rats [5] = assay: Toxicity studies in rats: ADA and PD effects; assay type: in vivo
From the text: (§1) The single- and repeat-dose toxicity of BMS-986326 were characterized in a series of studies in rats for up to 2 weeks and in monkeys up to 12 weeks using selected dosing frequencies. Pivotal good laboratory practice (GLP) repeat-dose studies in both species employed SC administration of BMS-986326 and consisted of two 2-week studies in rats using differing dose frequencies (once weekly [QW] vs twice weekly [2QW]), a 2-week once weekly dosing study in monkeys, and a 12-week (once every 3 week, Q3W) dosing study in monkeys. In addition, single-dose exploratory studies were initially completed in both rats and monkeys to explore the tolerability of BMS-986326, and a single-dose GLP IV toxicity and cardiovascular safety study was also completed in telemeterized monkeys using IV dosing to support IV administration in the first-in-human (FIH) single-ascending dose (SAD) study (IM034001).
(§2) In rats, BMS-986326 was noted to be highly immunogenic, with ADA formation occurring in 84% of BMS-986326-treated rats. In general, the presence of ADA was associated with reduced exposure and loss of PD activity, but was not associated with toxicity.
Intended and unintended PD effects occurred in a dose-dependent manner across all doses of each toxicity study and were generally more pronounced in monkeys than in rats. As an IL-2R agonist, BMS-986326 induced maximal phosphorylation of STAT5 in Treg cells (72% to 95%) across all doses in rats and monkeys, increased Treg cells (up to 63× in monkeys) and/or CD25 expression on CD4 Tregs (up to 4.5× in rats), and raised serum levels of IL-10 (up to 2× in rats and 87× in monkeys). In addition to the desired pharmacologic effects on Tregs, BMS-986326 also led to unintended effects including dose-dependent activation of conventional CD4 and CD8 T cell populations and NK cells, with concomitant elevation of serum IL-5, MCP-1, and perforin. At higher doses of BMS-986326 when dosed weekly in monkeys, increases in B cells (1.6×) and other inflammatory cytokines such as […] (7.9×), IL-1Ra (49×), and IL-6 (5.1×) were also noted. […]

monkeys [6] = assay: Toxicity studies in monkeys: ADA and PD effects; assay type: in vivo
From the text: as §1, §2
Intended and unintended PD effects occurred in a dose-dependent manner across all doses of each toxicity study and were generally more pronounced in monkeys than in rats. As an IL-2R agonist, BMS-986326 induced maximal phosphorylation of STAT5 in Treg cells (72% to 95%) across all doses in rats and monkeys, increased Treg cells (up to 63× in monkeys) and/or CD25 expression on CD4 Tregs (up to 4.5× in rats), and raised serum levels of IL-10 (up to 2× in rats and 87× in monkeys). In addition to the desired pharmacologic effects on Tregs, BMS-986326 also led to unintended effects including dose-dependent activation of conventional CD4 and CD8 T cell populations and NK cells, with concomitant elevation of serum IL-5, MCP-1, and perforin. At higher doses of BMS-986326 when dosed weekly in monkeys, increases in B cells (1.6×) and other inflammatory cytokines such as […] (7.9×), IL-1Ra (49×), and IL-6 (5.1×) were also noted. These inflammatory cytokines were not elevated when lower doses of BMS-986326 were given less frequently (Q3W) in the 12-week monkey toxicity study.

rats [7] = assay: Single-dose exploratory SC study in rats; assay type: in vivo
monkeys [8] = conditions: monkey, in vivo, sc
[9] = Human PK/PD, exposure and efficacious dose projection; conditions: projected peak
Protocol: Human PK was projected using allometric scaling of monkey PK parameters and was assumed to have similar SC bioavailability as in monkeys.
The first approach was based on maximal preclinical efficacy in mouse models dosed with mIL2-CD25.
The selection of the starting dose of 0.1 mg IV is based on the available preclinical PK, toxicology, and pharmacology data. PK/PD modeling and simulations were performed to generate predicted human PK and PD profiles from nonclinical data.

monkeys [10] = assay: Single-dose exploratory tolerability PK/PD study, SC, monkeys

## BMS-986326: recombinant fusion protein of human IL2 and extracellular domain of human CD25, (GGGS)3 linker, non-covalent self-blocking homodimer
[1]
  Kd: > 4000 nM
[2]
  decrease of in vitro potency compared to recombinant IL-2: > 100 fold
[2]; Kit225 IRF1-driven reporter cell line, read-out: average half-maximal effective concentration (EC50)
  EC50: 3.4 nM
[3]; highest concentration of drug
  % of Tregs pSTAT5+: > 90%
[3]; highest concentration of drug at 71 nM
  % pSTAT5+ cells in Tconv, CD8 cells and NK cells: < 50%
[4]
  total serum clearance (CLTs): 3.25 mL/h/kg
[4]; IV
  steady-state volume of distribution (Vss): 0.0954 L/kg
[4]; SC dosing
  absolute bioavailability: 58%
  apparent elimination half-life (T-HALF): 28.3 h
  time of maximum concentration (Tmax): 7 h
Rats [5]
  ADA formation, % of treated rats: 84%
  increase in CD25 expression on CD4 Tregs: up to 4.5 ×
  increase in serum levels of IL-10: up to 2 ×
Monkeys [6]
  increase in Treg cells: up to 63 ×
  increase in serum levels of IL-10: ≤ 87 ×
Monkeys [6]; higher doses dosed weekly
  increase in B cells: 1.6 ×
  increase in IFN-7: 7.9 ×
  increase in IL-1Ra: 49 ×
  increase in IL-6: 5.1 ×
Monkeys [6]; pivotal toxicity studies
  ADA development: generally did not develop
Rats [7]; male rats, single SC dose
  dose not tolerated (morbidity or death on Day 5): ≥ 25 mg/kg/day
Rats [7]; rats, 5 mg/kg
  mean AUC [0-96 h]: 501 µg·h/mL
Rats [7]; rats, single SC dose
  dose with no adverse effects observed: 5 mg/kg
Rats [7]; rats, ≥25 mg/kg/day
  mean AUC [0-96 h] at not tolerated doses: ≥ 2,080 μg·h/mL
Monkeys [8]; 0.075 mg/kg
  AUC: approximately 48 μg·h/mL
Monkeys [8]; 0.75 mg/kg
  AUC: ~407 µg·h/mL
  AUC[INF]: 407 µg·h/mL
[9]; 0.1 mg IV
  Fold-change CD8+: <2 fold
  Fold-change Tregs: <2 fold
[9]; 0.3 mg IV
  Fold-change CD8+: <2 fold
  Fold-change Tregs: <2 fold
[9]; 1 mg IV
  Fold-change CD8+: <2 fold
  Fold-change Tregs: 2-4 fold
[9]; 1 mg SC
  Fold-change CD8+: <2 fold
  Fold-change Tregs: 2-3 fold
[9]; 3 mg IV
  Fold-change CD8+: <2 fold
  Fold-change Tregs: 4-8 fold
[9]; 3 mg SC
  Fold-change CD8+: <2 fold
  Fold-change Tregs: 3-5 fold
[9]; 6 mg IV
  Fold-change CD8+: ~2 fold
  Fold-change Tregs: 7-15 fold
[9]; 6 mg SC
  Fold-change CD8+: <2 fold
  Fold-change Tregs: 4-8 fold
[9]; 8 mg SC
  Fold-change CD8+: ~2 fold
  Fold-change Tregs: 5-10 fold
[9]; 9 mg IV (optional Cohort A6)
  Fold-change CD8+: ~2 fold
  Fold-change Tregs: 10-20 fold
Monkeys [10]; 2 highest doses tested
  expansion and proliferation of Tconv and CD8+ T cells: dose-dependent expansion and proliferation
Monkeys [10]; single SC […]
  fold increase of % Treg above pre-dose at peak: 4.8 fold
Monkeys [10]; single SC dose
  dose not tolerated: 2.5 mg/kg
  well tolerated doses: up to 0.75 mg/kg
